Experimental data from patent US20240109881A1, “Heteroaryl Compounds as Ligand Directed Degraders of IRAK4” (Bristol-Myers Squibb Company, priority 2022, published 2024).

Molecular target: T1, IRAK4 (Homo sapiens, UniProt Q9NWZ3)
T1 construct: endogenous in cells; host or cells: THP-1 cells
T1 sequence (Q9NWZ3 1-460): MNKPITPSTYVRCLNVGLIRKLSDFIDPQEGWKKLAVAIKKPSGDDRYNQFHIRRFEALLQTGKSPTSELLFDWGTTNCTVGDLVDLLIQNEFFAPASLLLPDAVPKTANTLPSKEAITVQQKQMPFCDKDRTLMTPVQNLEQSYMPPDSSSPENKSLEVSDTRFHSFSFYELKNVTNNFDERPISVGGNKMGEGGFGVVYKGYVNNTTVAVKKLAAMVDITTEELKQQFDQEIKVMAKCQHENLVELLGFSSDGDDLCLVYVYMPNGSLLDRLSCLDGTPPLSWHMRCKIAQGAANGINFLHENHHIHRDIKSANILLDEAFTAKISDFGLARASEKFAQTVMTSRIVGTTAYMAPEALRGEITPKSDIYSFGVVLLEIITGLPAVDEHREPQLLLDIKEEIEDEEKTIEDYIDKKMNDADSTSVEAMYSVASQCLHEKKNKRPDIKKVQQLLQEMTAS
Experiment: LVL THP1 HTRF (THP1 Homogeneous Time Resolved Fluorescence)
Format: cell-based
Settings: THP1 cells, 18 h incubation with compound; for DC50: read-out: LVL THP1 HTRF EC50
Procedure, shortened: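 IRAK4 HTRF read-out (665/615 nm ratio, anti-IRAK4 d2 acceptor and K donor, 18 h dark incubation at room temperature) on lysates of THP-1 cells. Cells were treated 18 h at 37° C. with 20 nL compound in DMSO, in colorless RPMI with 10% FBS, with a duplicate CTG plate.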

Row | SMILES | LVL THP1 HTRF YMIN [%] | DC50 [nM]
1 | C[C@H](C#N)Nc1cc(Nc2ncc(C#N)cc2Cl)ncc1-n1cc([C@H]2CC[C@H](CCN3CC4(CC(c5ccc(N6CCC(=O)NC6=O)cn5)C4)C3)CC2)nn1 [P-473] | 15.5 | 1000
2 | C[C@H](C#N)Nc1cc(-n2ncc3cc(C#N)c(N)nc32)ncc1-n1cc([C@H]2CC[C@H](CCN3CCN(c4ccc([C@@]5(C)CCC(=O)NC5=O)cn4)CC3)CC2)nn1 (single isomer, unassigned) [P-265] | 93.2 | 1000
3 | COc1nc2c(cnn2-c2cc(N[C@H](C)C#N)c(C(=O)N[C@H]3CC[C@H](CCN4CCN(c5ccc(C6CCC(=O)NC6=O)cc5)CC4)CC3)cn2)cc1C#N (some centres unmarked) [P-184] | 1.3 | 51
4 | Cc1cc(N2CCC(=O)NC2=O)ccc1C1CCN(CC[C@H]2CC[C@H](c3cn(-c4cnc(-n5ncc6cc(C#N)cnc65)cc4N[C@H](C)C#N)nn3)CC2)CC1 [P-334] | 23.5 | 58.7
5 | C[C@H](C#N)Nc1cc(Nc2ncc(C#N)cc2Cl)ncc1-n1cc([C@H]2CC[C@H](CCN3CC4(CC(c5ccc(N6CCC(=O)NC6=O)cc5)C4)C3)CC2)nn1 [P-434] | 1.9 | 29.9
6 | C[C@H](C#N)Nc1cc(-n2ncc3cc(C#N)cnc32)ncc1-n1cc(C2CCC(CCN3CCN(c4ccc(N5CCC(=O)NC5=O)cc4)[C@@H]4CCC[C@@H]43)CC2)nn1 (single isomer, unassigned) [P-505] | 9.83 | 197
7 | C[C@H](C#N)Nc1cc(-n2ncc3ccc(N4C[C@H]5C[C@@H]4CO5)nc32)ncc1-n1cc([C@H]2CC[C@H](CCN3CCC(c4ccc([C@@]5(F)CCC(=O)NC5=O)cc4)CC3)CC2)nn1 (single isomer, unassigned) [P-513] | 5.2 | 8
8 | C[C@H](C#N)Nc1cc(-n2ncc3cc(C#N)cnc32)ncc1-n1cc([C@H]2CC[C@H](CCN3CC[C@H](c4ccc([C@@]5(C)CCC(=O)NC5=O)cc4)C[C@H]3C)CC2)nn1 (single isomer, unassigned) [P-282] | 1.0 | 3.4
9 | C[C@H](C#N)Nc1cc(-n2ncc3cc(C#N)cnc32)ncc1-n1cc([C@H]2CC[C@H](CCN3CC4(CC(c5ccc(N6CCC(=O)NC6=O)c(F)c5)C4)C3)CC2)nn1 [P-444] | −1.6 | 5.2
10 | C[C@H](C#N)Nc1cc(Nc2ncc(C#N)cc2F)ncc1-n1cc([C@H]2CC[C@H](CCN3CC[C@H]4[C@@H]3CCN4c3ccc(N4CCC(=O)NC4=O)cc3)CC2)nn1 (single isomer, unassigned) [P-507] | −1.72 | 62.8
11 | C[C@H](C#N)Nc1cc(-n2ncc3cc(C#N)c(N)nc32)ncc1-n1cc([C@H]2CC[C@H](CCN3[C@@H](C)CN(c4ccc([C@@]5(C)CCC(=O)NC5=O)cc4)C[C@@H]3C)CC2)nn1 [P-251] | 1.9 | 9.8
12 | C[C@]1(c2ccc(N3CCN(CC[C@H]4CC[C@H](c5cn(-c6cnc(-n7ncc8cc(C#N)cnc87)cc6NC6(C#N)CC6)nn5)CC4)CC3)cc2)CCC(=O)NC1=O [P-234] | – | 13
13 | C[C@H](C#N)Nc1cc(-n2ncc3cc(C#N)c(N)nc32)ncc1C(=O)N[C@H]1CC[C@H](CCN2CCN(c3ccc([C@@]4(C)CCC(=O)NC4=O)cc3)[C@@H](C)C2)CC1 [P-248] | 4.1 | 4
14 | C[C@H](C#N)Nc1cc(-n2ncc3cc(C#N)cnc32)ncc1-n1cc(C2CCC(CCN3CCN(c4ccc([C@@]5(C)CCC(=O)NC5=O)cc4)[C@H](C)C3)CC2)nn1 (some centres unmarked) [P-239] | 8.6 | 165
15 | C[C@H](C#N)Nc1cc(-n2ncc3cc(C#N)cnc32)ncc1-n1cc([C@H]2CC[C@H](CCN3CC[C@@H](c4ccc([C@@]5(C)CCC(=O)NC5=O)cc4)C(F)(F)C3)CC2)nn1 (single isomer, unassigned) [P-314] | 6.5 | 21.8
16 | C[C@H](C#N)Nc1cc(-n2ncc3cc(C#N)c(N)nc32)ncc1-n1cc([C@H]2CC[C@H](CCN3[C@@H](C)CN(c4ccc([C@@]5(C)CCC(=O)NC5=O)cn4)C[C@@H]3C)CC2)nn1 (single isomer, unassigned) [P-252] | 1.7 | 5.4

Row | SMILES | LVL THP1 HTRF YMIN [%] | DC50 [nM]
17 | C[C@H](C#N)Nc1cc(Nc2ncc(C#N)cc2Cl)ncc1-n1cc([C@H]2CC[C@H](CCN3CCN(c4ccc(N5CCC(=O)NC5=O)cc4)CC3)CC2)nn1 [P-384] | 6.5 | 45.4
18 | CC(F)(F)CNc1cc(-n2ncc3cc(C#N)cnc32)ncc1-n1cc(C2CCC(CCN3CCN(c4ccc(C5CCC(=O)NC5=O)cc4)CC3)CC2)nn1 (centres unmarked) [P-169] | 3.0 | –
19 | C[C@H](C#N)Nc1cc(-n2ncc3cc(C#N)cnc32)ncc1-n1cc([C@H]2CC[C@H](CCN3CCC(c4ccc(N5CCC(=O)NC5=O)cc4)C(F)C3)CC2)nn1 (single isomer, unassigned) [P-400] | 7.8 | 27.9
20 | C[C@H](C#N)Nc1cc(-n2ncc3cc(C#N)c(N)nc32)ncc1-n1cc(C2CCC(CCN3[C@@H](C)CN(c4ccc(C5CCC(=O)NC5=O)cc4)C[C@@H]3C)CC2)nn1 (some centres unmarked) [P-223] | 2.1 | < 1
21 | C[C@H](C#N)Nc1cc(-n2ncc3cc(C#N)cnc32)ncc1-n1cc([C@H]2CC[C@](O)(CCN3CCN(c4ccc(C5CCC(=O)NC5=O)cc4)CC3)CC2)nn1 (stereo partly drawn) [P-226, 1-(4-(((R)-1-cyanoethyl)amino)-5-(4-(4-(2-(4-(4-(2,6-dioxopiperidin-3-yl)phenyl)piperazin-1-yl)ethyl)-4-hydroxycyclohexyl)-1H-1,2,3-triazol-1-yl)pyridin-2-yl)-1H-pyrazolo[3,4-b]pyridine-5-carbonitrile] | 2.1 | 5
22 | C[C@H](C#N)Nc1cc(-n2ncc3cc(C#N)c(N)nc32)ncc1-n1cc([C@H]2CC[C@H](CCN3CCN(c4ccc([C@@]5(C)CCC(=O)NC5=O)nc4)[C@@H](C)C3)CC2)nn1 (single isomer, unassigned) [P-257] | 34.7 | 92.8
23 | C[C@H](C#N)Nc1cc(-n2ncc3cc(C#N)cnc32)ncc1-n1cc([C@H]2CC[C@H](CCN3CC[C@H]4[C@@H]3CN4c3ccc(N4CCC(=O)NC4=O)cc3)CC2)nn1 (single isomer, unassigned) [P-494] | 21.2 | 110
24 | N#Cc1cnc2c(cnn2-c2cc(NC3CCCC3)c(-n3cc([C@H]4CC[C@H](CCN5CCN(c6ccc(N7CCC(=O)NC7=O)cc6)CC5)CC4)nn3)cn2)c1 [P-412] | 15.2 | 160
25 | CCc1nc2c(cnn2-c2cc(N[C@H](C)C#N)c(C(=O)N[C@H]3CC[C@H](CCN4CCN(c5ccc(C6CCC(=O)NC6=O)cc5)CC4)CC3)cn2)cc1C#N (some centres unmarked) [P-192] | 1.0 | 58
26 | C[C@H](C#N)Nc1cc(-n2ncc3cc(C#N)cnc32)ncc1-n1cc([C@H]2CC[C@H](CCN3CC[C@H]4[C@@H]3CCN4c3ccc([C@@]4(C)CCC(=O)NC4=O)nc3)CC2)nn1 (single isomer, unassigned) [P-415] | 37.5 | 192
27 | C[C@H](C#N)Nc1cc(-n2ncc3cc(C#N)cnc32)ncc1-n1cc([C@H]2CC[C@](O)(CCN3CCN(c4ccc([C@@]5(C)CCC(=O)NC5=O)nc4)CC3)CC2)nn1 (single isomer, unassigned) [P-295] | 39.8 | 350
28 | C[C@H](C#N)Nc1cc(-n2ncc3cc(C#N)cnc32)ncc1-n1cc([C@H]2CC[C@H](CCN3CC[C@H]4[C@@H]3CCN4c3ccc([C@@]4(C)CCC(=O)NC4=O)cn3)CC2)nn1 (single isomer, unassigned) [P-312] | 7.9 | 13.2
29 | C[C@H](C#N)Nc1cc(-n2ncc3cc(C#N)cnc32)ncc1-c1cnn(C2CCC(CCN3CCN(c4ccc(C5CCC(=O)NC5=O)cc4)CC3)CC2)c1 (some centres unmarked) [P-203] | 3.0 | –
30 | C[C@H](C#N)Nc1cc(-n2ncc3cc(C#N)cnc32)ncc1-n1cc([C@H]2CC[C@](O)(CCN3CCN(c4ccc([C@@]5(C)CCC(=O)NC5=O)nc4)CC3)CC2)nn1 (single isomer, unassigned) [P-419] | −0.8 | 31.6
31 | C[C@H](C#N)Nc1cc(-n2ncc3cc(C#N)cnc32)ncc1-n1cc([C@H]2CC[C@H](CCN3CCN(c4ccc(N5CCC(=O)NC5=O)cc4F)CC3)CC2)nn1 [P-367] | 7.9 | 116
